This is an account of results in patent publication USRE35801E, “Prophylactic and therapeutic composition for circulatory disorders and method of treatment” (priority 1985, dated 1998).

The test system of assay [1] is lipid peroxidation (brain homogenate). Kind of assay: Inhibitory action of lipid peroxidation in brain homogenate (TBA value). The note with it: rat brain homogenate, 37° C., 30 minutes; for IC50: inhibition of lipid peroxidation. The assay is classed as biochemical. On the procedure: (1) Inhibitory action of lipid peroxidation (a) Preparation of brain homogenate By use of Wister-strain male rat, brain homogenate was prepared following the procedure as described below. […] Next, a brain perfusion was conducted through the tube with ice-cooled 50 mM phosphate-buffered physiological saline (pH 7.4) hereinafter referred to as "PBS"), and the whole brain was extirpated. After removal of cerebellum, the wet weight of cerebrum was measured and, with addition of 9-fold amount of PBS, it was broken by a Teflon homogenizer in ice-water to be homogenized. After the brain homogenate was subjected to centrifugation at 4° C. at 2200 rpm for 10 minutes, 0.3 ml of the supernatant was apportioned into a light-shielding test tube equipped with a ground stopper, to provide a brain homogenate for evaluation of medicine. (b) Evaluation of test medicine To the brain homogenate produced in (a), 0.6 ml of PBS and 10 μl of ethanolic solution of a test medicine were added (to a final concentration of 500 μM or a concentration at a common ratio of 3 between 0.3 and 100 μm), and the mixture was heated in a warm bath at 37° C. for 30 minutes. […] Also, the same operation was performed by addition of 10 μl of ethanol (blank) in place of 10 μl ethanolic solution of the test medicine for measurement of blank. […] After shaking for about 30 seconds, the mixture was subjected to centrifugation at 3000 rpm for 10 minutes, and the supernatant was provided as a sample for measurement of peroxidized lipid.

The subject of assay [2] is cerebral ischemia recirculation model. Kind of assay: Protective action in cerebral ischemia recirculation model. Type of assay: in vivo, Wistar-strain male rat. Set-up: key to Presence of electroencephalogram restoration / Judgement of action: The case when restoration of electroencephalogram is judged as +; case when not recognized as -. The following applies: 10 mg/kg into duodenum; 10 min cerebral ischemia (Table 3). On the procedure:
(3) Protective action in cerebral ischemia recirculation model
A Wistar-strain male rat weighing about 400 g was administered intramascularly with 0.6 mg of di-tubocurarine to be immobilized and, after a trachea cannulation, the head portion was fixed under artificial respiration on a stereotaxic device. The head skin was cut open, cranial bone was bored, and then bipolar electrode for lead-out of electroencephalogram were placed on the surface of the subdural left frontal cerebral cortex. After the electrode was fixed with the cranial bone by use of dental cement, the animal was held on its back. Next, a cannula for measurement of systemic pressure was placed within the left femoral artery, and a cannula for additional administration of d-tubocurarine within the left femoral vein, respectively. The heart rate was measured and recorded by driving a heart rate meter with the artery wave.
After blood pressure, heart rate and various parameters of electroencephalogram were stabilized, 10 mg/kg of the active ingredient of the present invention prepared in a suspension so as to give 1 ml/kg in 1% tragacanth gum solution was administered directly into duodenum […]. To the control group, only the 1% tragacanth gum solution of the same volume was administered similarly.
Ten to twenty minutes after administration of the medicine, while monitoring the electroencephalogram, blood pressure and heart rate on a multi-purpose monitoring recording device (RM-85 model, produced by Nippon Koden K.K.), the following operations were performed according to the methods shown below for cerebral ischemia loading.
First, ribs were set free at the left costicartilage end to open the chest. Next, cerebral blood flow was blocked for ten minutes by obstructing the left common carotid artery and the left subclavian artery exposed at the aorta originating portion at the same time, and then the brachiocephalic trunk by use of artery clips 30 minutes after administration of the medicine.
Recirculation of cerebral blood flow was effected by releasing at the same time the two artery clips mounted on the respective sites as mentioned above.
The protective action of the medicine for the disorder after recirculation of cerebral ischemia was examined by the presence of restoration of electroencephalogram, and survival time of animal after the recirculation.
During the experiment, the rectal temperature of the animal was maintained at 37° to 38° C. by use of a warming mat. Also, the rectal temperature was continuously drawn on the recorder together with electroencephalogram, femoral artery pressure and heart rate.

Assay [3] has as its system drowsy pattern of electroencephalogram induced by phenobarbital or pentobarbital sodium salt. Kind of assay: Antagonistic action against drowsy pattern of electroencephalogram induced by phenobarbital or pentobarbital sodium salt. The assay is classed as in vivo, Wistar-strain male rat. The following applies: for minimal effective dose: Rattus norvegicus, intravenous, sodium salt, drowsy EEG after PHB 30 mg/kg or PBT 5 mg/kg, read-out: Antagonistic action at dose or higher. On the procedure:
(2) Antagonistic action against drowsy pattern of so electroencephalogram induced by phenobarbital or pentobarbital sodium salt
A Wistar-strain male rat weighing about 400 g was intramasculary administered with 0.6 mg of d-tubocurarine to be immobilized and, while maintaining the rectal temperature at 37° to 38° C. under artificial respiration, the electroencephalogram of the left cerebral frontal cortex was measured and recorded. Also, within the left femoral artery and vein, cannulas for measurement of artery pressure and for administration of medicine were placed, respectively.
As the active ingredient of the present invention, sodium salt of the compound represented by Formula (I) was used and the respective doses of said active ingredient and 30 mg/kg of phenobarbital sodium salt (produced by Iwaki Seiyaku K.K.) (hereinafter called "PHB") or 5 mg/kg of pentobarbital sodium salt (hereinafter called PBT) were each dissolved in physiological saline and administered intravenously in a liquid amount of 1 ml/kg.
The action of the active ingredient of the present invention affecting the cortex electroencephalogram after PHB or PBT administration was investigated as follows; Namely, at the time of 5 minutes or later after PHB or PBT administration when increase of the slow-wave component can be clearly recognized on electroencephalogram, 1, 3, 10, 30 and 100 mg/kg of the active ingredient were administered. To the control group 1 ml/kg of physiological saline was intravenously administered.
Recording and analysis of electroencephalogram were continuously drawn together with artery pressure, heart rate and rectal temperature on the recorder through a multi-purpose monitoring recording device (model RM-85, produced by Nippon Koden K.K.). At the same time, electroencephalogram was recorded in data recorder (model A-65, produced by Sony K.K.), and compressed spectral array analysis was conducted by means of a computer for medical data processing (ATAC-450, produced by Nippon Koden K.K.).

Counter-ions that a name gives are not always drawn. A value given as a limit tells only on which side of the number the result lay.

A word on the IC50: it is the concentration needed to halve the response being measured. The compound `CC1=NN(c2ccc(N)cc2)C(=O)C1` [Compound 50, 1-(4-aminophenyl)-3-methyl-2-pyrazolin-5-one dihydrochloride] displayed an IC50 in assay [1] of 32.1 µM. On to `CCOC(=O)CC1=NN(c2ccccc2)C(=O)C1` [Compound 36, 3-(Ethoxycarbonylmethyl)-1-phenyl-2-pyrazolin-5-one], for which the IC50 in assay [1] came out at 32.2 µM. On to `CC1=NN(c2ccc(Cl)cc2)C(=O)C1` [Compound 16], for which the midpoint of inhibition in assay [1], the IC50, lay at 4 µM. Also, in assay [2], the “Presence of electroencephalogram restoration” value was “+”. Compound `CC1=NN(c2ccc(Cl)c(Cl)c2)C(=O)C1` [Compound 17] showed an IC50 in assay [1] of 1.6 µM. Still for that read-out and setting: to `CC1=NN(c2ccc([N+](=O)[O-])cc2)C(=O)C1` [Compound 23] belongs 5.1 µM; to `O=C1CC(c2ccccc2)=NN1c1ccccc1` [Compound 26, 1,3-Diphenyl-2-pyrazolin-5-one], 0.08 µM. As for `CC1=NN(C)C(=O)C1` [Compound 38, 1,3-Dimethyl-2-pyrazolin-5-one], the “Inhibitory percentage at 500 μM” value in assay [1] worked out at 45.5%. In assay [1], `COc1ccccc1N1N=C(C)CC1=O` [Compound 9] returned an IC50 of 2130 µM. In the case of `CC1=NN(C2CCCCC2)C(=O)C1` [Compound 40], in assay [1], the midpoint of inhibition, the IC50, lay at 24.8 µM. Further, the “Presence of electroencephalogram restoration” value in assay [2] was “+”. The compound `O=C1CC(c2ccccc2)=NN1c1ccc(O)cc1` [Compound 48] showed an IC50 in assay [1] of 2.7 µM.

Turning to `CC1=NNC(=O)C1` [Compound 37, 3-Methyl-2-pyrazolin-5-one], in assay [1], the “Inhibitory percentage at 500 μM” value was determined as 34.3%. Turning to `CCOC(=O)c1ccc(N2N=C(C)CC2=O)cc1` [Compound 22], in assay [1], the IC50 is 5.2 µM.

`CC1=NN(c2ccc(C)c(Cl)c2)C(=O)C1` [Compound 19] displayed an IC50 in assay [1] of 4.1 µM. On the same count and under the same terms, to `CC1=NN(c2ccc(CO)cc2)C(=O)C1` [Compound 49, 1-(4-hydroxymethylphenyl)-3-methyl-2-pyrazolin-5-one] belongs 51.8 µM; to `COc1ccc(N2N=C(C)CC2=O)cc1OC` [Compound 12], 23 µM. Turning to `O=C1C2CCCCC2=NN1c1ccccc1` (stereo not drawn) [Compound 35, 3,3a,4,5,6,7-Hexahydro-2-phenyl-2H-indazol-3-one], in assay [1], the IC50 was found to be 16.4 µM. The “Presence of electroencephalogram restoration” value in assay [2] is given as “+”. Turning to `COc1ccc(N2N=C(C)CC2=O)cc1` [Compound 11], the IC50 in assay [1] amounted to 20.7 µM. In addition, in assay [3], the minimal effective dose is ≥ 10 mg/kg. Also, in assay [2], the “Presence of electroencephalogram restoration” value is recorded as “+”. In turn, `CC1=NN(c2ccccc2Cl)C(=O)C1` [Compound 14] returned an IC50 in assay [1] of 97.8 µM. `CCC1=NN(c2ccccc2)C(=O)C1` [Compound 24, 3-Ethyl-1-phenyl-2-pyrazolin-5-one] yielded an IC50 in assay [1] of 15.1 µM. Consider `CN1N=C(c2ccccc2)CC1=O` [Compound 43], for which the IC50 in assay [1] came to 27.2 µM. With `CC1=NN(c2cccc(O)c2)C(=O)C1` [Compound 45], the IC50 in assay [1] came out at 21.2 µM.

`Cc1ccc(N2N=C(c3ccccc3)CC2=O)cc1` [Compound 27]: it took 1.2 µM to reach half-maximal inhibition in assay [1] (IC50).

On to `CC1=NN(c2ccccc2)C(=O)C1CCO` (stereo not drawn) [Compound 32, 4-(2-Hydroxyethyl)-3-methyl-1-phenyl-2-pyrazolin-5-one], for which the “Inhibitory percentage at 500 μM” value in assay [1] amounted to 62.7%. For the compound `CC1=NN(c2ccc(O)c(O)c2)C(=O)C1` [Compound 47], the IC50 in assay [1] was 1.3 µM. The same measure, in the same setting: to `CC1=NN(c2ccccc2)C(=O)C1Oc1ccccc1` (stereo not drawn) [Compound 33] belongs 16.2 µM. Regarding `CCC1(c2ccccc2)C(=O)NC(=O)NC1=O` [PHB, phenobarbital sodium salt, reference compound], the “persistence of sleep-like electroencephalogram after PHB” value in assay [3] (PHB 30 mg/kg intravenous) is “at least 3 hours”.

In assay [1], `CC1=NN(c2ccc(O)cc2)C(=O)C1` [Compound 46] gave an IC50 of 23.9 µM. For `O=C1CC(c2ccccc2)=NN1c1ccc(Cl)cc1` [Compound 29], the IC50 in assay [1] amounted to 1.2 µM. For the compound `CC1=NN(c2cccc3ccccc23)C(=O)C1` [Compound 42], 4.9 µM corresponded to half-maximal inhibition in assay [1] (IC50).

Regarding `CC1=NN(c2ccc(C)c(C)c2)C(=O)C1` [Compound 5], half-maximal inhibition in assay [1] (IC50) was put at 6 µM. Compound `CC1=NN(c2ccccc2)C(=O)C1CC(C)C` (stereo not drawn) [Compound 31, 4-Isobutyl-3-methyl-1-phenyl-2-pyrazolin-5-one] returned an IC50 in assay [1] of 5.7 µM. In addition, the minimal effective dose in assay [3] was ≥ 10 mg/kg. In addition, the “Presence of electroencephalogram restoration” value in assay [2] is listed as “+”.

For `CC1=NN(c2cccc(C(F)(F)F)c2)C(=O)C1` [Compound 8], the IC50 in assay [1] came out at 3.9 µM.

In turn, `COc1ccc(N2N=C(c3ccccc3)CC2=O)cc1` [Compound 28] had an IC50 in assay [1] of 3 µM. `CSc1cccc(N2N=C(C)CC2=O)c1` [Compound 20] gave an IC50 in assay [1] of 5.1 µM.

Consider `CC1=NN(c2ccccc2C)C(=O)C1` [Compound 2], for which inhibition in assay [1] was half-maximal at 392 µM (IC50).

On to `COc1cccc(N2N=C(C)CC2=O)c1` [Compound 10], for which, in assay [1], the IC50 is 7.1 µM. As to `CC1=NN(c2ccc(C(=O)O)cc2)C(=O)C1` [Compound 21], the “Inhibitory percentage at 500 μM” value in assay [1] came out at 34.0%. As for `CC1=NN(c2ccccc2)C(=O)C1Sc1ccccc1` (stereo not drawn) [Compound 34], 146 µM corresponded to half-maximal inhibition in assay [1] (IC50). The same measure, in the same setting: to `CC1=NN(Cc2ccccc2)C(=O)C1` [Compound 41] belongs 32.9 µM; to `CCCCc1ccc(N2N=C(C)CC2=O)cc1` [Compound 7], 2.2 µM. With `CC1=NN(CCO)C(=O)C1` [Compound 39, 1-(2-Hydroxyethyl)-3-methyl-2-pyrazolin-5-one], the “Inhibitory percentage at 500 μM” value in assay [1] was found to be 39.2%. Regarding `O=C1CC=NN1c1ccccc1` [Compound 51, 1-Phenyl-2-pyrazolin-5-one], half-maximal inhibition in assay [1] (IC50) required 20.1 µM. On the same count and under the same terms, for `CC1=NN(c2ccc(F)cc2)C(=O)C1` [Compound 18] the value was 12.1 µM. As for `CC1=NN(c2cccc(C)c2)C(=O)C1` [Compound 3], in assay [1], the IC50 worked out at 8 µM. For `CCOc1ccc(N2N=C(C)CC2=O)cc1` [Compound 13], the IC50 in assay [1] worked out at 10.3 µM. For the same compound, the “Presence of electroencephalogram restoration” value in assay [2] is on record as “+”. In assay [1], `CC1=NN(c2ccccc2O)C(=O)C1` [Compound 44, 1-(2-hydroxyphenyl)-3-methyl-2-pyrazolin-5-one] yielded an IC50 of 35.5 µM. In turn, `CC1=NN(c2cccc(Cl)c2)C(=O)C1` [Compound 15] had an IC50 in assay [1] of 3.4 µM. For the compound `CC1=NN(c2ccccc2)C(=O)C1C` (stereo not drawn) [Compound 30, 3,4-Dimethyl-1-phenyl-2-pyrazolin-5-one], the IC50 in assay [1] turned out to be 20.6 µM. The “Presence of electroencephalogram restoration” value in assay [2] is “+”.
